One may read the Kd as the equilibrium constant for the complex coming apart.

Entries after “also recorded” stand apart in the source; their conditions may differ. Some results are limits rather than exact numbers.

Test [1] has as its system rat hepatocytes in primary culture. The test is described as follows: Mitogenic assay: induction of DNA synthesis (3H-TdR incorporation) of rat hepatocytes in primary culture. The class given is cell-based. The following applies: for SA +/- mut/wt: Table 3, alterations near or within the hairpin domain; for SA +/- mut/wt / SA mut/wt +/- SD / SA var/SA wt +/-S.D.: * = did not reach the same absolute level as wild-type huHGF; for SA mut/wt +/- SD: Table 2, specific mitogenic activity relative to wt rhuHGF; for residual SA compared to WT rhuHGF: % of WT rhuHGF specific activity; for SA var/SA wt +/-S.D.: Table 1, specific mitogenic activity of variant relative to WT rhuHGF, at least three independent assays. The protocol: The biological activity of WT huHGF and variants was measured by their abilities to induce DNA synthesis of rat hepatocytes in primary culture. […] Briefly, the livers of female Sprague Dawley rats (160-180 g) were perfused through the portal vein with 100 mL of Ca^++ free Hepes buffered saline containing 0.02% Collagenase type IV (Sigma). After 20 minutes the liver was removed, placed in buffer, gently stirred to separate hepatocytes from connective tissue and blood vessels, and filtered through nylon mesh. Cells were then washed by centrifugation, resuspended at 1×10^5 cells/mL in Williams Media E (Gibco) containing Penicillin (100 U/ml), Streptomycin ([…]), L-Glutamine (2 mM), trace elements (0.01%), transfertin ([…]) and Aprotinin ([…]). […] After 48 hours incubation at 37° C., 0.5 mCi 3H-TdR (15 Ci/mmole, Amersham) was added to each well and incubated for an additional 16 hours. Cells were harvested on filter papers, which were washed, dried and counted in a Beckman counter after addition of scintillation liquid. For each huHGF variant, the specific activity (SA) expressed in units/mg was calculated at half-maximal proliferation (defined as 1 unit/mL) using the HGF concentration obtained in ELISA.

Test [2] has as its target extracellular domain of the human HGF receptor (huHGFr) fused to the Fc constant region of an human IgG. The test is described as follows: Soluble HGF receptor competitive binding assay (displacement of 125I-rhuHGF). The following applies: for Kdwt/mut: Table 2, Kd ratio wild type/mutant; for Kdwt/Kdvar +/-S.D.: Table 1, receptor binding capacity relative to WT rhuHGF, at least three independent assays; for receptor binding / Kd (in words): compared to WT rhuHGF. As to the method: The coding sequence of the extracellular domain of the huHGFr was fused to those of the human IgGl heavy chain in a two-step process. […] The 5' primer (located in the vector upstream of the HeFr coding sequences) and the 3' primer (5'-[…]-3') (SEQ. ID. NO: 21) were used in a 100 μl reaction as described above except that the extension time at 72° C. was 3 minutes, and 40 ng of the full length HGFr expression vector was used as template. […] Sequencing of the construct was carried out as described above.
The binding assay was performed in breakable microtiter plates (Nunc) coated o/n at 4° C. with […] of rabbit-anti-human IgG Fc specific antibody (Jackson Immunoresearch) and plates were carefully washed with PBS containing 0.05% Tween 20 (Biorad). […] To each well […] of serial dilutions (1:25-1:6000) of cell supernatants, purified CHO-expressed rhuHGF ([…]) or medium were added in duplicates. Subsequently, […] of 50 pM of HGF receptor:IgG fusion protein were added and the plates were incubated with gentle shaking. After 4 hours, when equilibrium was reached, plates were washed and wells were individually counted in a gamma-counter. The amount of nonspecifically bound radioactivity was estimated by incubating HGF receptor:IgG with a 500-fold excess of unlabelled rhuHGF.

Test [3] deals with 145 kDa β-subunit of the HGF receptor in A549 cells. Description: Induction of tyrosine phosphorylation of the HGF receptor on A549 cells (Western blot). It counts as cell-based, human. The following applies: serum-starved A549 cells, 200 ng/mL purified protein, 5 minutes. As to the method:
FIG. 4: Western blot of ligand-induced tyrosine-phosphorylation on the 145 kDa β-subunit of the HGF receptor by wild-type rhuHGF, single-chain or protease domain huHGF variants. […] Molecular masses (kilodaltons) are as indicated.
Serum-starved cells were incubated without or with 200 ng/mL rhuHGF for 5 minutes at 37° C. and extracted with lysis buffer containing 50 mM Hepes, 150 mM NaCl, 1.5 mM MgCl2, 1 mM EGTA, 10% Glycerol, 1% Triton X-100 and a cocktail of protease inhibitors. The lysates were immunoprecipitated with anti-Met COOH antibodies and blotted with anti-phosphotyrosine antibodies (see Western blotting above).

Regarding “D54A: huHGF variant with alteration near or within the hairpin domain”, the “SA +/- mut/wt” value in test [1] is given as 0.13 +/- 0.01.

“D117A: huHGF variant with alteration near or within the hairpin domain”: the “SA +/- mut/wt” value in test [1] stood at 0.02.

Turning to “E115A: huHGF variant with alteration near or within the hairpin domain”, the “SA +/- mut/wt” value in test [1] was 0.20 +/- 0.02.

“E159A: huHGF Kringle 1 domain substitution variant”: in test [2], the Kdwt/mut was under 0.03. Besides, the “SA mut/wt +/- SD” value in test [1] was under 0.02.

For “F162A, L163A, S165A, S166A: huHGF Kringle 1 domain substitution variant”, the Kdwt/mut in test [2] is 0.05 +/- 0.02. In test [1], the “SA mut/wt +/- SD” value was under 0.02.

For the substance “F162A: huHGF Kringle 1 domain substitution variant”, the Kdwt/mut in test [2] was 0.05 +/- 0.01. The “SA mut/wt +/- SD” value in test [1] is on record as 0.04 +/- 0.02.

As for “H114A, E115A, D117A: huHGF variant with alterations near or within the hairpin domain”, the “SA +/- mut/wt” value in test [1] is reported as under 0.02.

In the case of “H114A: huHGF variant with alteration near or within the hairpin domain”, in test [1], the “SA +/- mut/wt” value is listed as 0.16 +/- 0.04.

On to “K34A, R35A, R36A: huHGF variant with alterations near or within the hairpin domain”, for which the “SA +/- mut/wt” value in test [1] is 0.71 +/- 0.33.

Regarding “K52A, D54A: huHGF variant with alterations near or within the hairpin domain”, in test [1], the “SA +/- mut/wt” value is 0.32 +/- 0.03.

For the substance “K52A: huHGF variant with alteration near or within the hairpin domain”, the “SA +/- mut/wt” value in test [1] is given as 0.19 +/- 0.03.

In the case of “K58A, K60A, K62A, K63A, N65A: huHGF variant with alterations near or within the hairpin domain”, the “SA +/- mut/wt” value in test [1] was 6.96 +/- 0.12.

“K109A, K110A, E111A: huHGF variant with alterations near or within the hairpin domain”: in test [1], the “SA +/- mut/wt” value was 0.98 +/- 0.04.

On to “K137A: huHGF Kringle 1 domain substitution variant”, for which, in test [2], the Kdwt/mut is recorded as 0.98 +/- 0.04. Further, in test [1], the “SA mut/wt +/- SD” value is on record as 1.12 +/- 0.10.

Consider “K144A, K148A: huHGF Kringle 1 domain substitution variant”, for which the Kdwt/mut in test [2] was 1.03 +/- 0.08. Besides, the “SA mut/wt +/- SD” value in test [1] is listed as 0.93 +/- 0.16.

Consider “L163A, S165A, S166A: huHGF Kringle 1 domain substitution variant”, for which the Kdwt/mut in test [2] is 1.10 +/- 0.04. The “SA mut/wt +/- SD” value in test [1] was 0.14 +/- 0.08.

Take “N72A, R76A, N77A, K78A: huHGF variant with alterations near or within the hairpin domain”: the “SA +/- mut/wt” value in test [1] was 0.04 +/- 0.07.

Consider “N193A, E195A, R197A: huHGF Kringle 1 domain substitution variant”, for which the Kdwt/mut in test [2] is under 0.04. The “SA mut/wt +/- SD” value in test [1] is under 0.02.

As for “N193A: huHGF Kringle 1 domain substitution variant”, in test [2], the Kdwt/mut is 0.62 +/- 0.20. The “SA mut/wt +/- SD” value in test [1] was 0.45 +/- 0.12.

In the case of “Q173A, E174A, N175A: huHGF Kringle 1 domain substitution variant”, in test [2], the Kdwt/mut is reported as 0.21 +/- 0.03. Also, in test [1], the “SA mut/wt +/- SD” value is recorded as 0.33 +/- 0.07.

As to “Q173A: huHGF Kringle 1 domain substitution variant”, the Kdwt/mut in test [2] is given as 0.15 +/- 0.05. Also, the “SA mut/wt +/- SD” value in test [1] is reported as 0.13 +/- 0.03.

Turning to “Q534H, Y673S, V692S: huHGF protease domain triple variant”, in test [2], the “Kdwt/Kdvar +/-S.D.” value was 1.91 +/- 1.28 and the “receptor binding / Kd (in words)” value is listed as “not significantly different from WT rhuHGF”. In test [1], the “residual SA compared to WT rhuHGF” value is “less than 3%” and the “SA var/SA wt +/-S.D.” value was under 0.02.

Consider “Q534H, Y673S: huHGF protease domain double variant”, for which, in test [2], the “Kdwt/Kdvar +/-S.D.” value is 2.24 +/- 1.11 and the “receptor binding / Kd (in words)” value was “not significantly different from WT rhuHGF”. Also, in test [1], the “residual SA compared to WT rhuHGF” value is “less than 3%” and the “SA var/SA wt +/-S.D.” value was under 0.03.

Regarding “Q534H: huHGF protease domain variant, Q534 replaced with H”, the “Kdwt/Kdvar +/-S.D.” value in test [2] is reported as 1.48 +/- 0.85. The dissociation constant (Kd) in test [2] (binding to HGF receptor:IgG fusion protein, calculated at the IC50 from fitted inhibition curves) is 60 pM. The “SA var/SA wt +/-S.D.” value in test [1] is given as 1.19 +/- 0.44.

“R126A, N127A: huHGF variant with alterations near or within the hairpin domain”: the “SA +/- mut/wt” value in test [1] was 0.33 +/- 0.14.

In the case of “R168A: huHGF Kringle 1 domain substitution variant”, in test [2], the Kdwt/mut is on record as 0.98 +/- 0.04. Further, the “SA mut/wt +/- SD” value in test [1] is given as 0.83 +/- 0.07.

For “R181A, E183A, E184A: huHGF Kringle 1 domain substitution variant”, in test [2], the Kdwt/mut is on record as 0.95 +/- 0.04. Further, the “SA mut/wt +/- SD” value in test [1] is 0.92 +/- 0.08.

For “R197A: huHGF Kringle 1 domain substitution variant”, the Kdwt/mut in test [2] is recorded as under 0.03. Also, in test [1], the “SA mut/wt +/- SD” value is recorded as under 0.01.

On to R494E, for which the “tyrosine phosphorylation of the HGF receptor (in words)” value in test [3] is “reduced ability to induce phosphorylation of the HGF receptor; also recorded: not efficient in stimulating tyrosine-phosphorylation in A549 cells”. Also, in test [2], the “Kdwt/Kdvar +/-S.D.” value is on record as 0.31 +/- 0.13. Further, the “SA var/SA wt +/-S.D.” value in test [1] is recorded as under 0.02.

“V692S: huHGF protease domain variant, V692 replaced with S”: in test [2], the “Kdwt/Kdvar +/-S.D.” value was 1.02 +/- 0.13 and the “receptor binding / Kd (in words)” value is “Kd similar to WT rhuHGF”. In test [1], the “fold reduction of SA compared to wt rhuHGF” value was about 10 fold, the “maximum plateau of mitogenic response” value is listed as “approximately 50 % of wt rhuHGF plateau” and the “SA var/SA wt +/-S.D.” value is listed as 0.08 +/- 0.04.

Consider “Y198A: huHGF Kringle 1 domain substitution variant”, for which, in test [2], the Kdwt/mut is 0.77. Also, the “SA mut/wt +/- SD” value in test [1] is on record as 0.88 +/- 0.06.

With Y673S, V692S, the “tyrosine phosphorylation of the HGF receptor (in words)” value in test [3] is given as “reduced ability to induce phosphorylation of the HGF receptor; also recorded: not efficient in stimulating tyrosine-phosphorylation in A549 cells”. Further, in test [2], the “Kdwt/Kdvar +/-S.D.” value is given as 1.76 +/- 0.63 and the “receptor binding / Kd (in words)” value was “not significantly different from WT rhuHGF”. Moreover, in test [1], the “residual SA compared to WT rhuHGF” value is given as “less than 3%” and the “SA var/SA wt +/-S.D.” value was under 0.02.

Regarding “Y673S: huHGF protease domain variant, Y673 replaced with S”, in test [2], the “Kdwt/Kdvar +/-S.D.” value is 1.35 +/- 0.72 and the “receptor binding / Kd (in words)” value is “Kd similar to WT rhuHGF”. Moreover, in test [1], the “fold reduction of SA compared to wt rhuHGF” value is listed as “approximately 5 fold”, the “maximum plateau of mitogenic response” value was “approximately 50 % of wt rhuHGF plateau” and the “SA var/SA wt +/-S.D.” value is reported as 0.27 +/- 0.07.

(Values after US5547856A, “Hepatocyte growth factor variants” (Genentech, Inc., priority 1993, dated 1996).)
